From ChEMBL document CHEMBL6096678, “Targeting QPCTL: An Emerging Therapeutic Opportunity” (J Med Chem, 2025)
Values belong to the compound of their own block, whether it stands above or below them.

Legend:
[1] = molecular target: T1, Glutaminyl-peptide cyclotransferase-like protein (Homo sapiens, UniProt Q9NXS2); test: Binding affinity to QPTCL (unknown origin) assessed as inhibition constant
[2] = molecular target: Glutaminyl-peptide cyclotransferase (Homo sapiens, UniProt Q16769); test: Binding affinity to QPCT (unknown origin) assessed as inhibition constant
[3] = molecular target: T1, Glutaminyl-peptide cyclotransferase-like protein; test: Inhibition of QPCTL (unknown origin)
[4] = molecular target: T1, Glutaminyl-peptide cyclotransferase-like protein; test: Binding affinity to QPCTL (unknown origin) extracted from Escherichia coli BL21 (DE3) assessed as inhibition constant
[5] = molecular target: T1, Glutaminyl-peptide cyclotransferase-like protein; test: Binding affinity to QPCTL (unknown origin) assessed as dissociation constant

T1 sequence (Q9NXS2 whole entry): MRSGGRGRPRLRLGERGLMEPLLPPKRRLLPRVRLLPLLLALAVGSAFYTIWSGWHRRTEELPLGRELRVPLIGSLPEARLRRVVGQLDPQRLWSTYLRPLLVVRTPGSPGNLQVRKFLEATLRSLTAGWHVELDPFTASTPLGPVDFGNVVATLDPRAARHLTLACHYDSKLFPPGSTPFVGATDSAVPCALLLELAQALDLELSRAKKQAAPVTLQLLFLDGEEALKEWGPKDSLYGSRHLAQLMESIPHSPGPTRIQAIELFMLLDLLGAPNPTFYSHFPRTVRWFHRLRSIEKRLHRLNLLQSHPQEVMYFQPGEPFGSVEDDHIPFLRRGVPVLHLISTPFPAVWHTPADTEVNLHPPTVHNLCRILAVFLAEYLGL
Sequence of Glutaminyl-peptide cyclotransferase (Q16769 whole entry): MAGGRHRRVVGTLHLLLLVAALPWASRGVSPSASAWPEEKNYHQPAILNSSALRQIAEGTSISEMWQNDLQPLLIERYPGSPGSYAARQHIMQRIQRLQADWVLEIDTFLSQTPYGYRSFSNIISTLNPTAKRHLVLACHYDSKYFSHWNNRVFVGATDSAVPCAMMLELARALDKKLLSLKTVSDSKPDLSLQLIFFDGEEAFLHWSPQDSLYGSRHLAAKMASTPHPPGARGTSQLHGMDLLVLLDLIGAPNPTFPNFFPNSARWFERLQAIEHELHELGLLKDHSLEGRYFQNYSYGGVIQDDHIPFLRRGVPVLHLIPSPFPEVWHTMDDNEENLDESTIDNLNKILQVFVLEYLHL

SMILES: Cc1ccc(-c2ccsc2)c(N2CCC(c3nnc(N)n3C)CC2)n1
IC50 [3]: < 1 nM

SMILES: Cn1ccnc1 [1-METHYLIMIDAZOLE]
Ki [4]: 79 µM

SMILES: O=c1cc(-c2ccc(O)c(O)c2)oc2cc(O)cc(O)c12 [LUTEOLIN]
Kd [5]: 9.4 µM

SMILES: CCCOc1ccc([C@H]2CNC(=O)N2c2ccc3[nH]cnc3c2)cc1 [VAROGLUTAMSTAT]
Ki [1]: 5 nM

More lines, now with the values ahead:

Ki [1]: < 25 nM
Ki [2]: < 100 nM
SMILES: CCCOc1ccc(C2c3c(nn(C)c3C)C(=O)N2c2ccc3[nH]cnc3c2)c(F)c1 (configuration not stated)

Ki [1]: < 2 nM
SMILES: O=C1[C@H](O)[C@H](c2c(F)cc(-c3cnn(C(F)F)c3)cc2F)N1c1ccc2[nH]cnc2c1
